These results are taken from patent US7041698B2, “Hepatitis C virus inhibitors” (Bristol-Myers Squibb Company, priority 2002, dated 2006).

Assay [1] has as its target T1, NS3/4A BMS strain (UniProt P27958, C1454S/C1711G, species not given/STRAIN_BMS).
T1 construct: fused on or other part: Three-lysine solubilising tail at the C-terminus of NS4A
In words: Recombinant HCV NS3/4A protease complex FRET peptide assay, BMS strain. Format: biochemical, HCV genotype 1a. The note with it: read-out: IC50 against the NS3/4A BMS strain in the enzyme assay. The source says:
(§1) Recombinant HCV NS3/4A Protease Complex FRET Peptide Assay
(§2) The purpose of this in vitro assay was to measure the inhibition of HCV NS3 protease complexes, derived from the BMS, H77C or J416S strains, as described below, by compounds of the present invention. This assay provides an indication of how effective compounds of the present invention would be in inhibiting HCV proteolytic activity.
(§3) Serum from an HCV-infected patient was obtained from Dr. T. Wright, San Francisco Hospital. An engineered full-length cDNA (compliment deoxyribonucleic acid) template of the HCV genome (BMS strain) was constructed from DNA fragments obtained by reverse transcription-PCR (RT-PCR) of serum RNA (ribonucleic acid) and using primers selected on the basis of homology between other genotype 1a strains. From the determination of the entire genome sequence, a genotype 1a was assigned to the HCV isolate according to the classification of Simmonds et al. (See P Simmonds, K A Rose, S Graham, S W Chan, F McOmish, B C Dow, E A Follett, P L Yap and H Marsden, J. Clin. Microbiol., 31(6), 1493–1503 (1993)). […]

Assay [2] deals with T2, NS3/4A J4L6S strain (Hepatitis C virus genotype 1b, UniProt O92972, C1454S/C1711G).
T2 construct: DNA encoding the recombinant HCV NS3/4A protease complex (amino acids 1027 to 1711) for these strains; His tag (inferred from pET21b vector and Ni-NTA purification); made in house; host or cells: Escherichia coli BL21 (DE3)
T2 sequence (O92972 1027-1711 C1454S/C1711G): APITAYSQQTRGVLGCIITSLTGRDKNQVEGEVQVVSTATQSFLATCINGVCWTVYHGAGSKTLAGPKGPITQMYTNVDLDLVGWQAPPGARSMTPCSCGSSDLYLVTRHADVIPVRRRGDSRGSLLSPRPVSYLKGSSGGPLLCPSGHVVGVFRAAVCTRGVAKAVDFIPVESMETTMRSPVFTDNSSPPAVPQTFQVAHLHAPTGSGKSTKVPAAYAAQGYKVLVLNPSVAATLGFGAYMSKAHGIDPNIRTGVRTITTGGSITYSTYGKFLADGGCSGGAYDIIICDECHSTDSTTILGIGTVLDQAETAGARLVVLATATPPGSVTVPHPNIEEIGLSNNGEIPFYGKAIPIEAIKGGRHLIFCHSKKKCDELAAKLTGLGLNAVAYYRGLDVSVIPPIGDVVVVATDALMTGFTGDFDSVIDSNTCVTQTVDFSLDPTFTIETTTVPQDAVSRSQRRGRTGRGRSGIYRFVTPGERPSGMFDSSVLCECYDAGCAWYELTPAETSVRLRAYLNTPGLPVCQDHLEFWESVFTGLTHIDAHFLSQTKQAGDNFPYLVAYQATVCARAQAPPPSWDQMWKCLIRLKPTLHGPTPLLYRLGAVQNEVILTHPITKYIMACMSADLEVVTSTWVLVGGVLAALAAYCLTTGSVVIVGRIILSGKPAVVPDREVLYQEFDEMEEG
In words: Recombinant HCV NS3/4A protease complex FRET peptide assay, J4L6S strain. The class given is biochemical, HCV genotype 1b.
Text: as §1, §2, §3

Take `C=CC1C[C@]1(NC(=O)[C@@H]1C[C@@H](OC(=O)Nc2ccccc2-c2ccccc2)CN1C(=O)[C@@H](NC(=O)OC(C)(C)C)C(C)(C)C)C(=O)NS(=O)(=O)C1CC1` (stereo partly drawn) [Compound 8, BocNH-P3(t-BuGly)-P2(Hyp(O—CO(NH-biphen-2-yl)))-P1(1R,2S VinylAcca)—CONHSO2Cyclopropane]: the figures for the IC50 in assay [1] and in assay [2] were 51 nM and 9.5 nM, respectively.
